“Also recorded” adds a separate entry of the source. Read-outs that look alike come from different tables or passages of the source.
Legend:
CPAP-tubulin interaction = assay: AlphaScreen assay of inhibition of the CPAP-tubulin interaction (normalized AlphaScreen signal; triplicate determination; TruHit kit as counter-control); assay type: binding
Description: FIGS. 1 to 4, 19 and 20 show normalized AlphaScreen signal for conventional tubulin binders Vinblastin (FIG. 1), Paclitaxel (FIG. 2), Docetaxel (FIG. 3) Colchicin (FIG. 4), Bactallin III (FIG. 19) and Taxol (FIG. 20).
Most tubulin-binding agents act on spindle microtubules and thus prevent mitosis nonspecifically.
The Error bars in FIGS. 1 to 16, 19 and 20 indicate data from a triplicate determination. The TruHit Kit captures possible effects on AlphaScreen assay technology.

[1] = system: MDA-MB-231 cells expressing tubulin-GFP; assay: live cell experiments, MDA-MB-231 tubulin-GFP; assay type: cell-based
[2] = system: subcutaneous human prostate tumor cell (PC3) xenografts; assay: PC3 xenograft in nude mice; assay type: in vivo
Method: To evaluate the anti-tumor activity of compound (A), compound (A) was delivered to nude mice bearing subcutaneous human prostate tumor cell (PC3) xenografts. Compound (A) was administered (10 mg/kg) by oral gavage once per day and the rate of tumor growth was monitored. Compared to vehicle treated controls, it was noticed a reduction in tumor growth rate in compound-(A)-treated mice. Importantly, the anti-tumor activity of compound (A) could be observed as determined by reduced tumor volume with respect to control at day 10.
(§1) To evaluate if compound (B) has anti-tumor activity in vivo, nude mice bearing subcutaneous human prostate (PC3) and breast (MDA-MB-231) tumor xenografts were used.
(§2) In each case, two groups of mice bearing tumor volume >100 mm^3 were used. Compound (B) (10 or 20 mg, Kg-1/day) by oral gavage was delivered. At the end of treatment, we measured the total tumor volume of compound (B)-treated groups and compared with vehicle-treated controls.

cancer cells = assay: 24 h EdU pulse labeling experiment; assay type: cell-based; conditions: 24 h pulse labeling
[3] = system: extra-centrosomes in cancer cells; assay: cell-based assay of centrosome declustering activity
Method: (§3) To evaluate the effect of compound (A) in cancer cells, a spectrum of breast cancer-(BT549, MDA-MB-231), lung cancer-(TKI-sensitive PC9, TKI-resistant H1975^T790M or HCC827 with C-met amplification) and hepatocellular carcinoma-(POP10) cells was treated with compound (A) for 24 h.

[4] = system: Plk-4-inducible MCF10A cells; assay: tolerability and cellular toxicity in Plk-4-inducible MCF10A; assay type: cell-based, human
Description: Building on Example 1, a proof-of-principle experiment was established in which lentiviral-mediated transduction of constitutive or doxycycline-inducible CPAP^F375A that cannot interact with tubulin (hereafter CPAPΔT) was introduced into non-transformed human mammary epithelial MCF10A cells. These MCF10A cells are engineered to regulate centrosome amplification via doxycycline-inducible overexpression of Polo-Like-Kinase (PLK4). Introducing CPAPΔT prematurely activated Plk4-induced extra-centrosomes in interphase to nucleate microtubules and prevented them from clustering.
Since compound (A) is a tubulin binder, its tolerability and cellular toxicity in comparison to taxol in Plk-4-inducible MCF10A was evaluated.

[5] = system: BT549, MDA-MB-231, PC9, H1975T790M, HCC827, POP10 cells; assay: cancer cell proliferation, spectrum of cancer cell lines; assay type: cell-based; conditions: range over BT549, MDA-MB-231, PC9, H1975T790M
Method: as §3
The effects of compound (B) on a spectrum of breast cancer-(BT549, MDA-MB-231),NSCLC-(PC9, TM-resistant H1975T790M, HCC827-GR) and hepatocellular-carcinoma-(POP10)-cells were tested by treatment with compound (B) for 72 hrs.

solubility = assay type: physicochemical
[6] = system: CPAP-tubulin interaction in MCF10A cells; assay: immunopurification of CPAP complexes from treated cells; assay type: cell-based, human; conditions: CPAP complexes from cytoplasmic extracts of MCF10A
Method: Finally, it was tested if compound (B) could prevent CPAP-tubulin interaction in cells and simultaneously enhance the ability of CPAP to bind its interacting proteins. CPAP complexes from cytoplasmic extracts of compound (B)-treated MCF10A cells were immunopurified.

[7] = system: subcutaneous human breast (MDA-MB-231) tumor xenografts; assay: MDA-MB-231 xenograft in nude mice; assay type: in vivo
Method: as §1, §2

[8] = system: 3D-organotypic cultures of H1975T790M, HCC827-GR and A549; assay: 3D organotypic culture invasion model; assay type: cell-based
Description: Further, to test whether preventing CPAP-tubulin interaction could impair cancer cell invasiveness, a three-dimensional (3D) organotypic culture model for cancer cells was adapted that recapitulates many aspects of human epithelial cancer tissue architecture.

[9] = system: two-centrosomes containing cells; assay: live imaging for microtubule toxic effect; assay type: cell-based
Method: Except compound (B), neither of the tested tubulin binders could perturb CPAP-tubulin interaction, enhance PCM recruitment to interphase centrosomes and prevent extra centrosomes from clustering. […] In addition, to rule out the possible microtubule toxic effect of compound (B), live imaging experiments were performed.

[10] = system: MCF10A (+Dox, extra centrosomes) and HCC827-GR cells; assay: live imaging of extra-centrosome cells; assay type: cell-based, human
stability = assay type: physicochemical
[11] = system: Cep152, PCNT and CDK5RAP2 recruitment to interphase centrosomes of MCF10A cells; assay: PCM protein recruitment to interphase centrosomes (imaging, heat map intensity); assay type: cell-based, human; conditions: versus vehicle
Description: Mechanisms by which compound (B) activates extra centrosomes to nucleate enhanced microtubules were identified. Peri-centriolar material (PCM) recruitment to centrosomes is required for microtubule nucleation.
To test this, we estimated the amounts of Cep152, PCNT and CDK5RAP2 recruitment to interphase centrosomes of compound (B)—treated MCF10A cells.

H827 cells = assay: cell proliferation with erlotinib, H827; assay type: cell-based
A549 cells = assay: cell proliferation with erlotinib, A549; assay type: cell-based

## CCC(CO)Nc1ncc2cc3ccccc3nc2c1C#N (racemic) [Racemic mixture of compounds C and C‘]
CPAP-tubulin interaction; values given in µM
  IC50: 1.39 µM

## N#Cc1c(Cl)ncc2cc3ccccc3nc12 [Compound D]
CPAP-tubulin interaction; values in nM
  IC50: 0.023 µM

## N#Cc1c(NCc2ccccc2)ncc2cc3ccccc3nc12 [Compound E]
CPAP-tubulin interaction; values given in µM
  IC50: 1.21 µM

## Nc1n[nH]c2ncc3cc4ccccc4nc3c12 [Compound F]
CPAP-tubulin interaction; values given in µM
  IC50: 6.94 µM

## N#Cc1c(Sc2ccccc2)ncc2cc3ccccc3nc12 [Compound G]
CPAP-tubulin interaction; values in nM
  IC50: 0.211 µM

## N#Cc1c(SCC(=O)Nc2ccccc2)ncc2cc3ccccc3nc12 [Compound I]
CPAP-tubulin interaction; values given in µM
  IC50: 1.76 µM

## N#Cc1c(N2CCCCCC2)ncc2cc3ccccc3nc12 [Compound J]
CPAP-tubulin interaction; values given in µM
  IC50: 6.32 µM

## N#Cc1c(N2CCCCC2)ncc2cc3ccccc3nc12 [Compound L]
CPAP-tubulin interaction; values given in µM
  IC50: 1.88 µM

## CC(=O)O[C@H]1C(=O)[C@@]2(C)[C@H]([C@H](OC(=O)c3ccccc3)[C@]3(O)C[C@H](OC(=O)[C@H](O)[C@@H](NC(=O)c4ccccc4)c4ccccc4)C(C)=C1C3(C)C)[C@]1(OC(C)=O)CO[C@@H]1C[C@@H]2O [Paclitaxel, reference compound]
CPAP-tubulin interaction; values given in µM
  IC50: 52.6 µM

## CCCCNc1ncc2cc3ccccc3nc2c1C#N [compound (A)]
[1]
  mitosis and cell fate in live cells: prolonged mitosis with eventual apoptosis
[2]; PC3, 10 mg/kg oral gavage once per day
  tumor growth rate versus vehicle: reduction
[2]; PC3, 10 mg/kg oral gavage once per day, day 10
  tumor volume with respect to control: reduced
Cancer cells
  number of cancer cells with EdU incorporation: reduced number
[3]; BT549 cells, 24 h treatment
  concentration causing declustering of extra-centrosomes in interphase: 500 nM
[4]
  proliferation of MCF10A cells that harbor extra centrosomes: specifically inhibited
[4]; MCF10A cells with two centrosomes
  concentration tolerated without defect in bipolar mitotic spindles: up to 10 μM
[5]; HCC827, POP10, treated 24 h
  IC50: 860 to 2900 nM

## COc1ncc2cc3ccccc3nc2c1C#N [compound (B), 3-Methoxybenzo[b][1,6]naphthyridine-4-carbonitrile]
solubility
  solubility relative to compound (A): increased
[6]
  CPAP-tubulin interaction in cells: specifically perturbs
[7]; MDA-MB-231, 10 or 20 mg/kg/day oral gavage
  tumor growth rate versus vehicle: significant reduction
[7]; MDA-MB-231, after 31 days
  tumor volume with respect to control: reduced
[7]; MDA-MB-231 model, 10 or 20 mg/kg/day oral
  body weights of treated animals: did not change
[8]; 5 μM, H1975T790M, HCC827-GR, A549 organoids
  prevention of actin-positive invasive protrusions from 3D spheres: sufficient to prevent
[8]; H1975T790M organoids
  cell death in organoids: activated caspase-positive cells
[8]; treated organoids
  organoid growth: did not grow further from its original size
[2]; PC3, 10 or 20 mg/kg/day oral gavage
  tumor growth rate versus vehicle: significant reduction
[2]; PC3, after 10 days
  tumor volume with respect to control: reduced
[2]; PC3 model, 10 or 20 mg/kg/day oral
  body weights of treated animals: did not change
[9]
  concentration not affecting microtubule dynamics, cell cycle progression or mitotic spindle assembly: up to 5 μM
  concentration not preventing formation of bipolar mitotic spindles: up to 8 μM
[3]; cancer cells
  centrosome declustering activity (preventing extra centrosomes from clustering): potent; also recorded: prevented clustering of extra centrosomes
[10]
  mitosis and cell fate in live imaging: prolonged mitosis with an apparent apoptosis
stability
  stability relative to compound (A): increased
[5]; HCC827-GR, POP10, treated 72 hrs
  IC50: 860 to 2900 nM
[11]
  recruitment of PCM proteins (Cep152, PCNT, CDK5RAP2) to interphase centrosomes: enhanced amounts

## C#Cc1cccc(Nc2ncnc3cc(OCCOC)c(OCCOC)cc23)c1 [erlotinib]
[8]; 3D organotypic cultures of H1975 and A549
  prevention of formation of invasive protrusions: not
H827 cells; H827, combined with 750 nM compound (A), read-out: IC50 of erlotinib in combinatorial treatment
  IC50: 30 nM
H827 cells; H827, single agent, read-out: IC50 of cell proliferation
  IC50: 6900 nM
[3]; H827 cells, erlotinib treatment
  centrosome clustering in H827: does not affect centrosome clustering
A549 cells; A549, single agent, read-out: IC50 of cell proliferation
  IC50: 5070 nM
A549 cells; Homo sapiens, A549, A549, addition of 1.5 μM compound (A), read-out: IC50 of erlotinib in combinatorial treatment
  IC50: 500 nM
A549 cells; Homo sapiens, A549, A549, single agent, read-out: IC50 of cell proliferation
  IC50: 5000 nM

## CC(=O)O[C@H]1C(=O)[C@@]2(C)[C@H]([C@H](OC(=O)c3ccccc3)[C@]3(O)C[C@H](OC(=O)[C@H](O)[C@@H](NC(=O)c4ccccc4)c4ccccc4)C(C)=C1C3(C)C)[C@]1(OC(C)=O)CO[C@@H]1C[C@@H]2O [taxol, reference compound]
[9]
  concentration that collapsed the spindles: 30 nM
[4]; 100 nM
  MCF10A cell proliferation regardless of extra centrosomes: non-selectively prevented
[4]; taxol treatment
  centrosome clustering in MCF10A: did not affect centrosome clustering

From US10875856B2, “CPAP-tubulin module” (UNIVERSITAET ZU KOELN, priority 2015, dated 2020)
